This passage reports inhibition and IC50 results from US8598132B2, “Glycosylated indolocarbazoles, method for obtaining same and uses thereof” (Universidad de Oviedo, priority 2008, dated 2013).

The experiment deals with T1, FLT3 (Homo sapiens, UniProt P36888).
T1 construct: purchased Upstate
T1 sequence (P36888 27-993): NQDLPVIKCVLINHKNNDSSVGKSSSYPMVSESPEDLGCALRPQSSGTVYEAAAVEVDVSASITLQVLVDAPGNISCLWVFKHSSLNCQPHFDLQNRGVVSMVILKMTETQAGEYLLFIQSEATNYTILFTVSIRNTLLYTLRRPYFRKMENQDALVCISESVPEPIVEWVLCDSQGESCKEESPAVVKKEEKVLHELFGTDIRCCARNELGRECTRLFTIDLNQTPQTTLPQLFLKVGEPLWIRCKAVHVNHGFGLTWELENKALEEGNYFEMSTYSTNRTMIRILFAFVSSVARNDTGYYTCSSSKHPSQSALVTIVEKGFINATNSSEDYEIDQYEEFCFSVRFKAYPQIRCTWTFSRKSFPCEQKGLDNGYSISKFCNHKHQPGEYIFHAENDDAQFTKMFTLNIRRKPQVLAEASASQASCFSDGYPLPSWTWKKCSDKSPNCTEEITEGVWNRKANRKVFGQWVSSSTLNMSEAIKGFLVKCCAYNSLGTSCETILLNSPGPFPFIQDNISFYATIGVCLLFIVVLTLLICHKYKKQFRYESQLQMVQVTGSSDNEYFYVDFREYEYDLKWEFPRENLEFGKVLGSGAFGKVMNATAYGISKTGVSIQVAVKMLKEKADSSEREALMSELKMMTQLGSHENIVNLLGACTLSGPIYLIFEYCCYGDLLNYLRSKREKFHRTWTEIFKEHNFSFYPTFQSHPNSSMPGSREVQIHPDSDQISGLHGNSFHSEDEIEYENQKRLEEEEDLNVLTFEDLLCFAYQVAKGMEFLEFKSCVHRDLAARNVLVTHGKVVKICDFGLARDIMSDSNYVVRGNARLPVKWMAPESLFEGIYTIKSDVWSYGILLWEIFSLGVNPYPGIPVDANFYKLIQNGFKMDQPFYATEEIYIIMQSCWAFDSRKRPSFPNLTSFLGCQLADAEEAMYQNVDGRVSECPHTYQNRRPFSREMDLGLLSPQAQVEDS
Description: LabChip (Caliper) kinase assay, FLT3. It counts as biochemical. Particulars: for inhibition at 0.01 µM / inhibition at 0.1 µM: FLT3, read-out: remaining kinase activity (in %) / percentage of inhibition; for inhibition at 0.01 µM: compound at 10 nM; for inhibition at 0.1 µM: compound at 100 nM; for IC50: Ftl3, ATP at Km, read-out: CI50 (the source's name). How it is done: The analysis of kinase activity described here was performed using LabChip (Caliper Life Sciences), specifically the Caliper LC3000 and the EZ Reader II instruments.
The kinase assay used measures the conversion of a fluorescent peptide (substrate) to a phosphorylated product. The reaction mixture, in a microplate well, is introduced by a capillary in a chip where the non-phosphorylated substrate and the phosphorylated product are separated by […]. The intensity of the fluorescent signal over time is related to the reaction progress. The phosphorylated product migrates quicker than the non-phosphorylated substrate and the signals of the two forms of the peptide appear as differentiated peaks. The Caliper determines the peak height and calculates the ratio of product to the peak sum (P/(P+S)). This value is used to compare wells with compounds and wells with controls and thus determine the % of inhibition for the given product.
The followings kinases were used for the enzymatic inhibition studies, between brackets the value of the Michaelis-Menten constant, Km, of the ATP (Adenosine triphosphate) for each kinase, in μM: obtained from Carna Biosciences: MAPKAPK2 (4.6), AurA (3.6), AurB (5), PKCζ (3.8), RSK1 (23.3), PRAK (5), Erk1 (33.4), PKD2 (32.1), CK1d (16.3), CHK1 (33), ABL (61.7), FYN (36), LYNa (17), CHK2 (57.8), MET (79.5), LCK (28.5), SRC (38), GSK3β (7.3), Erk2 (62.1), PKACα (1.7), AKT2 (186.1), INSR (871.8), p38a (396.5), AKT1(48), MSK1 (21.2), PKCβ2 (84.8), ROCK2 (3.3), PIM2 (4.9), AMPK (38.6), KDR (164.8), IRAK4 (196.5), SGK1 (121.8), SYK (33.5); obtained from Invitrogen: CDK2 (57.6), BTK (123), HGK (80); obtained from Upstate: MST2 (36.6), PKGα (16), PAK2 (1.9), IGF1R (320), FGFR1 (171), MARK1 (33), CAMK2δ (22.4), c-TAK1 (66), DYRK1a (18.1), CaMK4 (3.9), FLT3 (350), c-Raf (6.2), P70S6K (95).
The compounds were dissolved in 100% DMSO and were diluted at 25 times the final concentration desired for the assay. In the case of the determination of Cl50, serial dilutions were made to reach eight concentrations and give rise to the inhibition curve. 1 μL of each concentration is transferred, in duplicate to a 384-well microplate. 12 μL of enzymatic buffer is added to each well containing purified kinase (several suppliers as indicated above), 100 mM HEPES, pH 7.5, 1 mM DTT (Calbiochem), 0.002% Brij-35 (Sigma) and also in presence of 10 mM MgCl2 as cofactor, except for INSR and IRAK4 wherein 10 mM MnCl2 is used instead of MgCl2. For the kinases CAMK26 and CAMK4, 1 mM CaCl2 and 6.7 μg/mL of calmodulin are also added. For KDR kinase, 0.05% of the CHAPSO detergent is added. For the c-Raf kinase, 10 mM MnCl2 is added. For PKCβ2 0.02 μg/mL of PS/PMA is added. For PKGα se 10 μM of cGMP (cyclic guanosine monophosphate) is added. The compound and the enzyme are left for 15 minutes preincubation and, then, the following are added to each well: 12 μL of peptide buffer/ATP containing 100 mM HEPES, pH 7.5, 1.5 μM peptide marker with fluorescein (specific for the corresponding kinase), ATP (at concentration KM), and 0.002% Brij-35 to start the reaction. Generally, the reactions are incubated for 1-1.5 h at ambient temperature to obtain an adequate conversion (15-40%) of the peptide to the phosphorylated product. The reactions were ended by the addition of 45 μL of buffer containing 0 mM EDTA. The microplates were read by the LabChip 3000 using a 12-channel LabChip. The P/(P+S) values were obtained as described above and the CI50 curves were generated using XIfit.
Table 9a has the 0150 data obtained in pairs of compound-kinase selected from the compounds of formula (VII), (VIII), (IX), (XVI), (XVII) and (XVIII) after taking inhibition measurements at 100 nM and 10 nM. Those couples that provide >70% of inhibition at 10 nM were consider for measuring its IC50. […]

In the case of `C[C@@H]1O[C@@H](n2c3ccccc3c3c4c(c5c6ccccc6[nH]c5c32)C(=O)NC4=O)[C@H](O)[C@H](O)[C@H]1O` [formula (III), N^13-1′-β-L-rhamnosylarcyriaflavin], the inhibition at 0.01 µM was -10% and the inhibition at 0.1 µM came to 25%.

Regarding `C[C@@H]1O[C@@H](n2c3ccccc3c3c4c(c5c6ccccc6[nH]c5c32)C(=O)NC4=O)C[C@H](O)[C@H]1O` [formula (IV), N^13-1′-β-L-olivosylarcyriaflavin], the inhibition at 0.01 µM was 20% and the inhibition at 0.1 µM turned out to be 81%.

For `C[C@]12O[C@H](C[C@@H](O)[C@H]1O)n1c3ccccc3c3c4c(c5c6ccccc6n2c5c31)C(=O)NC4=O` [formula (IX), N^12-5′(S)-N^13-1′-(R)-L-digitoxosylarcyriaflavin], the IC50 worked out at 0.43 nM.

For the molecule `C[C@@H]1O[C@@H](n2c3ccccc3c3c4c(c5c6ccccc6[nH]c5c32)C(=O)NC4=O)C[C@@H](O)[C@H]1O` [formula (V), N^13-1′-β-L-digitoxosylarcyriaflavin], the inhibition at 0.01 µM turned out to be 63% and the inhibition at 0.1 µM is 95%.

Turning to `C[C@H]1O[C@@H](n2c3ccccc3c3c4c(c5c6ccccc6[nH]c5c32)C(=O)NC4=O)C[C@@H](O)[C@@H]1O` [formula (VI), N^13-1′-β-D-olivosylarcyriaflavin], the inhibition at 0.01 µM came to 51% and the inhibition at 0.1 µM was 98%.

Turning to `C[C@]12O[C@H]([C@H](O)[C@H](O)[C@H]1O)n1c3ccccc3c3c4c(c5c6ccccc6n2c5c31)C(=O)NC4=O` [formula (VII), N^12-5′(S)-N^13-1′-(R)-L-rhamnosylarcyriaflavin], the IC50 was found to be 0.57 nM.

Regarding `C[C@]12O[C@H](C[C@H](O)[C@H]1O)n1c3ccccc3c3c4c(c5c6ccccc6n2c5c31)C(=O)NC4=O` [formula (VIII), N^12-5′(S)-N^13-1′-(R)-L-olivosylarcyriaflavin], the IC50 was 0.56 nM.

`C[C@@H]1O[C@@H](n2c3ccccc3c3c4c(c5c6ccccc6[nH]c5c32)CNC4=O)[C@H](O)[C@H](O)[C@H]1O` [formula (XII), N^13-1′-β-L-rhamnosyl-k252c]: the inhibition at 0.01 µM was -7% and the inhibition at 0.1 µM is 35%.

In the case of `C[C@@H]1O[C@@H](n2c3ccccc3c3c4c(c5c6ccccc6[nH]c5c32)CNC4=O)C[C@H](O)[C@H]1O` [formula (XIII), N^13-1′-β-L-olivosyl-k252c], the inhibition at 0.01 µM is 34% and the inhibition at 0.1 µM was determined as 89%.

As to `C[C@@H]1O[C@@H](n2c3ccccc3c3c4c(c5c6ccccc6[nH]c5c32)CNC4=O)C[C@@H](O)[C@H]1O` [formula (XIV), N^13-1′-β-L-digitoxosyl-k252c], the inhibition at 0.01 µM worked out at 20% and the inhibition at 0.1 µM came to 79%.

For `C[C@H]1O[C@@H](n2c3ccccc3c3c4c(c5c6ccccc6[nH]c5c32)CNC4=O)C[C@@H](O)[C@@H]1O` [formula (XV), N^13-1′-β-D-olivosyl-k252c], the inhibition at 0.01 µM worked out at 76% and the inhibition at 0.1 µM was found to be 106%.

Take `C[C@]12O[C@H]([C@H](O)[C@H](O)[C@H]1O)n1c3ccccc3c3c4c(c5c6ccccc6n2c5c31)CNC4=O` [formula (XVI), N^12-5′(S)-N^13-1′-(R)-L-rhamnosyl-k252c]: the IC50 turned out to be 0.59 nM.

As to `C[C@]12O[C@H](C[C@H](O)[C@H]1O)n1c3ccccc3c3c4c(c5c6ccccc6n2c5c31)CNC4=O` [formula (XVII), N^12-5′(S)-N^13-1′-(R)-L-olivosyl-k252c], the IC50 turned out to be 0.54 nM.
